Reference: ChEMBL document CHEMBL4321854, “Discovery of a First-in-Class Mitogen-Activated Protein Kinase Kinase 1/2 Degrader” (J Med Chem, 2019)
Activity calls are given as the source filed them. No cut-off for these calls is given here.

Tests used:
[1] = target: T1, von Hippel-Lindau disease tumor suppressor/Dual specificity mitogen-activated protein kinase kinase 2 (Homo sapiens) (UniProt P36507+P40337); assay: Protac activity against VHL/MEK2 in human HT-29 cells harboring with BRAF V600E variant assessed as degradation of MEK2 by measuring MEK2 protein level at 0.3 uM pretreated with MEK1/2 inhibitor, PD0325901 for 2 hrs followed by incubation with compound for 10 hrs by Western blot analysis; assay type: cell-based
T1 sequence (P36507 whole entry, looked up): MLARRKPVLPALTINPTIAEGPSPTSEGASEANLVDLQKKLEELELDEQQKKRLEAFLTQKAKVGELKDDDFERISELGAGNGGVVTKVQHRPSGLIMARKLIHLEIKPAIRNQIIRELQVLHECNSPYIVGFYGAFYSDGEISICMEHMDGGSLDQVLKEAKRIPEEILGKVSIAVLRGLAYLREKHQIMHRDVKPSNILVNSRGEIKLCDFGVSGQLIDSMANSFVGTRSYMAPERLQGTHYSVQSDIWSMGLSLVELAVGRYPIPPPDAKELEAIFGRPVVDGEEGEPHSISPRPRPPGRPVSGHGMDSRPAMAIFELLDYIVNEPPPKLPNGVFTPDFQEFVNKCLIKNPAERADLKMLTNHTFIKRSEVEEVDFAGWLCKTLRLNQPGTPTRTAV
T1 sequence (P40337 whole entry, looked up): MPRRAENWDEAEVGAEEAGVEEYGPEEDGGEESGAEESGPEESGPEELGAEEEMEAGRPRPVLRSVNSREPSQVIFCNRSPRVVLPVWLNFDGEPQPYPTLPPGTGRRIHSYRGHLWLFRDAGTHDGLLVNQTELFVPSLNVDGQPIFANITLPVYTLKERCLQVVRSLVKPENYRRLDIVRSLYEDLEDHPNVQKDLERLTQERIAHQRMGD

[2] = target: T2, von Hippel-Lindau disease tumor suppressor/Dual specificity mitogen-activated protein kinase kinase 2/Dual specificity mitogen-activated protein kinase kinase 1 (Homo sapiens) (UniProt P36507+Q02750+P40337); assay: Protac activity against VHL/MEK1/2 in human HT-29 cells harboring with BRAF V600E variant assessed as reduction in phosphorylation of MEK at S218/222 residues after 24 hrs by Western blot analysis; assay type: cell-based
T2 sequence (P36507 whole entry, looked up): as the sequence (P36507 whole entry, looked up) above
T2 sequence (P40337 whole entry, looked up): as the sequence (P40337 whole entry, looked up) above
T2 sequence (Q02750 whole entry, looked up): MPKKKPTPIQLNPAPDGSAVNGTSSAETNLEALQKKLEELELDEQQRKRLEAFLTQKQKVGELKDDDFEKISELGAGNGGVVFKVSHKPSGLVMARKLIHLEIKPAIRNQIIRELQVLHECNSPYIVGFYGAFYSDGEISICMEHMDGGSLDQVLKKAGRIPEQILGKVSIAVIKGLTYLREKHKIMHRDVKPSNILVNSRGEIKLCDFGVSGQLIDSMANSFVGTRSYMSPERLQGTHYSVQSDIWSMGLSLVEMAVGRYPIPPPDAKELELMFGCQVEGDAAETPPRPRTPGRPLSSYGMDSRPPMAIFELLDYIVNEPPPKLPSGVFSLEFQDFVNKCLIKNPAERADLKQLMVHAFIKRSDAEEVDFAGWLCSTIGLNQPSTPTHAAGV

[3] = Plasma concentration in Swiss albino mouse at 50 mg/kg, ip measured after 8 hrs by LC-MS/MS analysis; assay type: ADME, organism-based
[4] = target: T2, von Hippel-Lindau disease tumor suppressor/Dual specificity mitogen-activated protein kinase kinase 2/Dual specificity mitogen-activated protein kinase kinase 1 (Homo sapiens); assay: Protac activity against VHL/MEK1/2 in human SK-MEL-28 cells harboring with BRAF V600E variant assessed as reduction in phosphorylation of MEK at S218/222 residues at 0.1 to 0.3 after >= 2 hrs by Western blot analysis; assay type: cell-based
[5] = target: T3, von Hippel-Lindau disease tumor suppressor/Dual specificity mitogen-activated protein kinase kinase 1 (Homo sapiens) (UniProt Q02750+P40337); assay: (§1) Protac activity against VHL/MEK1 in human SK-MEL-28 cells harboring with BRAF V600E variant assessed as degradation of MEK1 by measuring MEK1 protein level at 0.3 uM pretreated with proteasome inhibitor, MG-132 for 2 hrs followed by incubation with compound for 10 hrs by Western blot analysis; assay type: cell-based
T3 sequence (P40337 whole entry, looked up): as the sequence (P40337 whole entry, looked up) above
T3 sequence (Q02750 whole entry, looked up): as the sequence (Q02750 whole entry, looked up) above

[6] = target: T2, von Hippel-Lindau disease tumor suppressor/Dual specificity mitogen-activated protein kinase kinase 2/Dual specificity mitogen-activated protein kinase kinase 1 (Homo sapiens); assay: (§2) Protac activity against VHL/MEK1/2 in human HT-29 cells harboring with BRAF V600E variant assessed as phosphorylation of ERK at T202/Y204 residues at 0.3 uM pretreated with NEDD8-activating enzyme inhibitor, MLN4924 for 2 hrs followed by incubation with compound for 10 hrs by Western blot analysis; assay type: cell-based
[7] = target: T1, von Hippel-Lindau disease tumor suppressor/Dual specificity mitogen-activated protein kinase kinase 2 (Homo sapiens); assay: Protac activity against VHL/MEK2 in human SK-MEL-28 cells harboring with BRAF V600E variant assessed as degradation of MEK2 by measuring MEK2 protein level at 0.3 uM pretreated with VHL ligand, VH 032 for 2 hrs followed by incubation with compound for 10 hrs by Western blot analysis; assay type: cell-based
[8] = target: Dual specificity mitogen-activated protein kinase kinase 2 (Homo sapiens, UniProt P36507); assay: Inhibition of recombinant full length human His-tagged MEK2 expressed in baculovirus expression system using ERK K52R dead variant as substrate preincubated for 20 mins followed by incubation with 33P-ATP for 2 hrs by hotspot kinase assay
Sequence of Dual specificity mitogen-activated protein kinase kinase 2 (P36507 whole entry): as the sequence (P36507 whole entry, looked up) above

[9] = target: T2, von Hippel-Lindau disease tumor suppressor/Dual specificity mitogen-activated protein kinase kinase 2/Dual specificity mitogen-activated protein kinase kinase 1 (Homo sapiens); assay: Protac activity against VHL/MEK1/2 in human COLO205 cells harboring with BRAF V600E variant assessed as reduction in phosphorylation of MEK at S218/222 residues after 24 hrs by Western blot analysis; assay type: cell-based
[10] = tested on: SK-MEL-28; assay: Effect on total ERK protein expression in human SK-MEL-28 cells at 0.001 to 5 uM after 24 hrs by Western blot analysis; assay type: functional, cell-based
[11] = target: T2, von Hippel-Lindau disease tumor suppressor/Dual specificity mitogen-activated protein kinase kinase 2/Dual specificity mitogen-activated protein kinase kinase 1 (Homo sapiens); assay: as §2, with “SK-MEL-28” for “HT-29”; assay type: cell-based
[12] = tested on: HT-29; assay: Effect on total ERK protein expression in human HT-29 cells at 0.001 to 5 uM after 24 hrs by Western blot analysis; assay type: functional, cell-based
[13] = target: von Hippel-Lindau disease tumor suppressor/Dual specificity mitogen-activated protein kinase kinase 1 (Homo sapiens, UniProt Q02750+P40337, V600E); assay: (§3) Protac activity against VHL/MEK1 in human HT-29 cells harboring BRAF V600E variant assessed as degradation of MEK1 after 24 hrs by Western blot analysis; assay type: cell-based
Sequence of von Hippel-Lindau disease tumor suppressor/Dual specificity mitogen-activated protein kinase kinase 1 (P40337 whole entry, looked up, stated change not applied): as the sequence (P40337 whole entry, looked up) above
Sequence of von Hippel-Lindau disease tumor suppressor/Dual specificity mitogen-activated protein kinase kinase 1 (Q02750 whole entry, looked up, stated change not applied): as the sequence (Q02750 whole entry, looked up) above

[14] = target: T3, von Hippel-Lindau disease tumor suppressor/Dual specificity mitogen-activated protein kinase kinase 1 (Homo sapiens); assay: as §3; assay type: cell-based
[15] = target: T3, von Hippel-Lindau disease tumor suppressor/Dual specificity mitogen-activated protein kinase kinase 1 (Homo sapiens); assay: as §1, with “NEDD8-activating enzyme” for “proteasome”, “MLN4924” for “MG-132”; assay type: cell-based
[16] = target: T3, von Hippel-Lindau disease tumor suppressor/Dual specificity mitogen-activated protein kinase kinase 1 (Homo sapiens); assay: Protac activity against VHL/MEK1 in human HT-29 cells harboring with BRAF V600E variant assessed as degradation of MEK1 at 0.1 to 0.3 uM after 4 hrs by Western blot analysis; assay type: cell-based
[17] = target: T2, von Hippel-Lindau disease tumor suppressor/Dual specificity mitogen-activated protein kinase kinase 2/Dual specificity mitogen-activated protein kinase kinase 1 (Homo sapiens); assay: Protac activity against VHL/MEK1/2 in human SK-MEL-28 cells harboring with BRAF V600E variant assessed as phosphorylation of MEK at S218/222 residues at 0.3 uM pretreated with MEK1/2 inhibitor, PD0325901 for 2 hrs followed by incubation with compound for 2 hrs by Western blot analysis; assay type: cell-based
[18] = target: T2, von Hippel-Lindau disease tumor suppressor/Dual specificity mitogen-activated protein kinase kinase 2/Dual specificity mitogen-activated protein kinase kinase 1 (Homo sapiens); assay: Protac activity against VHL/MEK1/2 in human SK-MEL-28 cells harboring with BRAF V600E variant assessed as phosphorylation of ERK at T202/Y204 residues at 0.3 uM pretreated with MEK1/2 inhibitor, PD0325901 for 2 hrs followed by incubation with compound for 10 hrs by Western blot analysis; assay type: cell-based
[19] = target: T1, von Hippel-Lindau disease tumor suppressor/Dual specificity mitogen-activated protein kinase kinase 2 (Homo sapiens); assay: Protac activity against VHL/MEK2 in human HT-29 cells harboring with BRAF V600E variant assessed as degradation of MEK2 by measuring MEK2 protein level at 0.3 uM pretreated with proteasome inhibitor, MG-132 for 2 hrs followed by incubation with compound for 10 hrs by Western blot analysis; assay type: cell-based
[20] = target: T2, von Hippel-Lindau disease tumor suppressor/Dual specificity mitogen-activated protein kinase kinase 2/Dual specificity mitogen-activated protein kinase kinase 1 (Homo sapiens); assay: Protac activity against VHL/MEK1/2 in human SK-MEL-28 cells harboring with BRAF V600E variant assessed as phosphorylation of ERK at T202/Y204 residues at 0.3 uM pretreated with proteasome inhibitor, MG-132 for 2 hrs followed by incubation with compound for 10 hrs by Western blot analysis; assay type: cell-based
[21] = target: T2, von Hippel-Lindau disease tumor suppressor/Dual specificity mitogen-activated protein kinase kinase 2/Dual specificity mitogen-activated protein kinase kinase 1 (Homo sapiens); assay: Protac activity against VHL/MEK1/2 in human HT-29 cells harboring with BRAF V600E variant assessed as reduction in phosphorylation of ERK at T202/Y204 residues at 0.1 to 0.3 uM by Western blot analysis; assay type: cell-based; settings: TDE = time-dependent effect
[22] = tested on: UACC-257; assay: Effect on total ERK protein expression in human UACC257 cells at 0.001 to 5 uM after 24 hrs by Western blot analysis; assay type: functional, cell-based
[23] = target: T3, von Hippel-Lindau disease tumor suppressor/Dual specificity mitogen-activated protein kinase kinase 1 (Homo sapiens); assay: Protac activity against VHL/MEK1 in human UACC257 cells harboring with BRAF V600E variant assessed as degradation of MEK1 at 3 to 5 uM uM after 24 hrs by Western blot analysis; assay type: cell-based
[24] = target: T3, von Hippel-Lindau disease tumor suppressor/Dual specificity mitogen-activated protein kinase kinase 1 (Homo sapiens); assay: Protac activity against VHL/MEK1 in human SK-MEL-28 cells harboring with BRAF V600E variant assessed as degradation of MEK1 by measuring reduction in MEK1 protein level at 0.1 to 0.3 uM after 2 hrs by Western blot analysis; assay type: cell-based
[25] = target: T1, von Hippel-Lindau disease tumor suppressor/Dual specificity mitogen-activated protein kinase kinase 2 (Homo sapiens); assay: Protac activity against VHL/MEK2 in human COLO205 cells harboring with BRAF V600E variant assessed as degradation of MEK2 at 3 to 5 uM after 24 hrs by Western blot analysis; assay type: cell-based
[26] = Maximum drug concentration in Swiss albino mouse plasma at 50 mg/kg, ip measured after 0.5 hrs by LC-MS/MS analysis; assay type: ADME, organism-based; set-up: dose 50 mg/kg, route intraperitoneal

Question: With Cc1ncsc1-c1ccc([C@H](C)NC(=O)[C@@H]2C[C@@H](O)CN2C(=O)[C@@H](NC(=O)CCCCCCCCCCNCCCONC(=O)c2ccc(F)c(F)c2Nc2ccc(I)cc2F)C(C)(C)C)cc1 as the compound, how does the Activity [1] read?
Answer: The Activity was “inactive”.

Question: And the Activity [2]?
Answer: The Activity was “Dose-dependent effect”.

Question: And the concentration at 8 h [3]?
Answer: The concentration at 8 h was 710 nM.

Question: And the Activity [4]?
Answer: The Activity was “Active”.

Question: What about the Activity [5] of the same compound?
Answer: Its Activity is “inactive”.

Question: And the Activity [6]?
Answer: The Activity was “inactive”.

Question: What about the Activity [7] of the same compound?
Answer: Its Activity is “inactive”.

Question: And the IC50 [8]?
Answer: Its IC50 is 590 nM.

Question: What about the Activity [9] of the same compound?
Answer: The Activity was “Dose-dependent effect”.

Question: What about the Activity [10] of the same compound?
Answer: The Activity was “inactive”.

Question: And the Activity [11]?
Answer: Its Activity is “inactive”.

Question: And the Activity [12]?
Answer: The Activity was “inactive”.

Question: What about the DC50 [13] of the same compound?
Answer: Its DC50 is 31 nM.

Question: And the Activity [14]?
Answer: The Activity was “Dose-dependent effect”.

Question: What about the Activity [15] of the same compound?
Answer: Its Activity is “inactive”.

Question: And the Activity [16]?
Answer: Its Activity is “Active”.

Question: And the Activity [17]?
Answer: Its Activity is “inactive”.

Question: What about the Activity [18] of the same compound?
Answer: The Activity was “inactive”.

Question: And the Activity [19]?
Answer: The Activity was “inactive”.

Question: And the Activity [20]?
Answer: Its Activity is “inactive”.

Question: What about the Activity [21] of the same compound?
Answer: Its Activity is “Tde”.

Question: And the Activity [22]?
Answer: The Activity was “inactive”.

Question: What about the Activity [23] of the same compound?
Answer: Its Activity is “Active”.

Question: And the Activity [24]?
Answer: Its Activity is “Active”.

Question: And the Activity [25]?
Answer: The Activity was “Active”.

Question: And the Cmax [26]?
Answer: Its Cmax is 1400 nM.
